The source of these data is publication PMC10587436, “A bacterial quorum sensing signal is a potent inhibitor of de novo pyrimidine biosynthesis in the globally abundant Emiliania huxleyi” (Frontiers in Microbiology, 2023).

Test [1] has as its target T1, E. huxleyi dihydroorotate dehydrogenase (EhDHODH).
T1 construct: ΔN20EhDHODH (first 20 residues truncated, start at residue 21; N-terminal eight-residue histidine tag)
Briefly: DCIP colorimetric DHODH activity assay, Morrison tight-binding fit; IC50 […]. The class given is biochemical, Emiliania huxleyi.

The target of test [2] is E. huxleyi dihydroorotate dehydrogenase (EhDHODH).

The compound `CCCCCCCc1cc(=O)c2ccccc2[nH]1` [HHQ] returned a Ki in test [1] of 0.0023 ± 0.0007 µM. `Cc1c(-c2ccc(-c3ccccc3F)cc2)nc2ccc(F)cc2c1C(=O)O` [brequinar]: in test [2], the IC50 was determined as 43 ± 11 µM.

By Ki is commonly meant a measure of affinity in units of concentration, obtained from inhibition or displacement. For orientation: IC50 means the concentration that inhibits the measured activity by half.
